The target of one experiment is T1, NLRP3 inflammasome (Mus musculus, UniProt Q8R4B8).
T1 construct: checked a degree of IL-1β production induced by ATP in LPS primed BMDMs using ELISA; endogenous in cells; host or cells: bone marrow-derived macrophages (BMDM) from wild-type C57BL/6 mouse, LPS-primed and ATP-stimulated
Kind of experiment: ELISA of IL-1β production induced by ATP in LPS primed BMDMs. Type of experiment: cell-based. Particulars: BMDMs primed with LPS 10 ng/ml 18 hours; compound 6.25, 12.5, 25, 50 μM 1 hour; ATP 5 mM 2 hours; FIG. 9 upper graph. The method, then:
When LPS primed bone marrow-derived macrophages are treated with ATP, NLPR3 inflammasome is activated, and, thus, IL-1β is secreted. Therefore, in order to check whether the apo-9′-fucoxanthinone compound has an effect of inhibiting the NLRP3 inflammasome, the inventors of the present invention checked a degree of IL-1β production induced by ATP in LPS primed BMDMs using ELISA To do so, the bone marrow-derived macrophages cultured in the same manner as Example 2 were dispensed at 1×10^5 cells/0.5 ml in a 48-well plate, and these cells were treated with LPS at a concentration of 10 ng/ml for 18 hours. Then, the cells were treated with the apo-9′-fucoxanthinone compound at each concentration (0, 6.25, 12.5, 25, and 50 μM) for 1 hour. At 2 hours after treatment with ATP at a concentration of 5 mM, a cell culture medium was obtained and an expression amount of IL-1β was measured using ELISA (R&D system, MN, USA). Further, as a positive control group, a group treated with 10 μM parthenolide (described as “part” in the drawings) known as an NLRP3 inflammasome inhibitor was used.
Background: An ELISA detects its analyte on a solid surface through an enzyme-linked reagent.

In the next experiment the test system is IκBα. Kind of experiment: Western blot of degradation and phosphorylation of IκBα in CpG-ODN-stimulated macrophages. Type of experiment: cell-based, mouse. Particulars: macrophages pre-treated at 20 μM for 1 hour before CpG-ODN; FIG. 6B. How it is done: (§1) In order to check whether the apo-9′-fucoxanthinone compound has an effect on activities of MAPK and NF-κB that are upstream signal transduction pathways for pro-inflammatory cytokine production, a Western blot analysis was conducted as follows. That is, the macrophages were dispensed to 60-mm culture dishes at 4×10^6 cells per dish, and then cultured for 24 hours at 37° C. The cells were pre-treated with the apo-9′-fucoxanthinone compound at a concentration of 20 μM for 1 hour before treatment with CpG-ODN. The cells were collected and dissolved using a lysis buffer (PRO-PREP Lysis buffer, iNtRON Biotechnology). Protein samples were electrophoresed in 10%-SDS PAGE, and then electrophoresed in a polyvinylidene fluoride membrane, and then treated and reacted with phospho-p44/42 (P-ERK p44/p42), phospho-p38 (P-p38), p38 MAPK, phospho-SAPK/JNK (P-JNK), phospho-IκBα, and IκBα (Cell Signaling Technology, MA, USA) as 1/1000 diluted primary antibodies. Thereafter, the membrane was washed and treated and reacted with horseradish peroxidase-linked anti-rabbit IgG (Cell Signaling Technology). Then, a signal was checked using a WEST-ZOL plus western blot detection system (iNtRON Biotechnology).
A general note: In western blotting, separated proteins are transferred to a membrane and probed.

Experiment [1] concerns IL-12 p40, IL-6, and TNF-α. Nature of the experiment: ELISA of pro-inflammatory cytokine production in CpG-ODN-stimulated bone marrow-derived macrophage. It counts as cell-based, mouse. The conditions noted are these: compound 5, 10, 20, 50 μM for 1 hour before CpG-ODN (1 μM), FIG. 4. How it is done:
(§2) Bone marrow-derived dendritic cells (BMDC) and macrophage (BMDM) were obtained from a wild-type C57BL/6 mouse. To be brief, bone marrow cells were obtained by flushing a tibia and femur of the mouse with DMEM (Dulbecco's modified Eagles medium). The cells were cultured in a medium RPMI 1640 including 10% heat-inactivated FBS (Gibco, NY, U.S.A.), 50 μM of β-mercapto ethanol, and 2 mM glutamine and supplemented with 3% hybridoma cell culture supernatant J558L containing granulocyte-macrophage colony-stimulating factor (GM-CSF) for BMDCs.
Further, the obtained bone marrow cells were cultured in a DMEM including 20% heat-inactivated FBS, a 30% L929 cell culture supernatant containing a macrophage colony-stimulating factor, and 1% penicillin-streptomycin for BMDMs.
(§3) In order to check whether the Sargassum muticum extracts obtained in the present invention has an anti-inflammatory and an immunomodulatory activity, the following experiments were conducted with the Sargassum muticum extracts obtained in Example <1-1>. That is, bone marrow-derived macrophage and dendritic cells cultured as described above were seeded at 1×10^5 cells/0.5 ml in a 48-well plate. […] Supernatants were harvested 18 hour after stimulation. Amounts of IL-12 p40, IL-6, and TNF-α were measured using ELISA (BD PharMingen, CA, USA and R&D system, MN, USA). […]

Experiment [2] relates to IL-12 p40, IL-6, and TNF-α. Kind of experiment: ELISA of pro-inflammatory cytokine production in CpG-ODN-stimulated bone marrow-derived dendritic cells. The conditions noted are these: compound 5, 10, 20, 50 μM for 1 hour before CpG-ODN (1 μM), FIG. 5. It counts as cell-based, mouse. How it is done:
as §2
as §3, with “USA). At this time, a non-treated group, a group treated with the extracts only, and a group treated with CpG-ODN only without treatment with the extracts were used as a control group.” for “USA).”

Experiment [3] relates to bone marrow-derived macrophages. Kind of experiment: MTT assay of pyroptotic cell death of bone marrow-derived macrophages treated with LPS and ATP. It counts as cell-based, mouse. The conditions noted are these: bone marrow-derived macrophages treated with both LPS and ATP; compound 6.25-50 μM; FIG. 9 lower graph. How it is done:
When LPS primed bone marrow-derived macrophages are treated with ATP, NLPR3 inflammasome is activated, and, thus, IL-1β is secreted. Therefore, in order to check whether the apo-9′-fucoxanthinone compound has an effect of inhibiting the NLRP3 inflammasome, the inventors of the present invention checked a degree of IL-1β production induced by ATP in LPS primed BMDMs using ELISA To do so, the bone marrow-derived macrophages cultured in the same manner as Example 2 were dispensed at 1×10^5 cells/0.5 ml in a 48-well plate, and these cells were treated with LPS at a concentration of 10 ng/ml for 18 hours. Then, the cells were treated with the apo-9′-fucoxanthinone compound at each concentration (0, 6.25, 12.5, 25, and 50 μM) for 1 hour. At 2 hours after treatment with ATP at a concentration of 5 mM, a cell culture medium was obtained and an expression amount of IL-1β was measured using ELISA (R&D system, MN, USA). […]
That is, the cells treated as described above were treated with 0.2 mg of an MTT reagent and cultured at a temperature of 37° C. for 4 hours. After culture, the cells were collected and formazan crystals in each well were dissolved in 250 μl of DMSO, and then, an absorbance at 540 nm was measured to measure cell viability.

The test system of the next experiment is ERK1/2 (ERK p44/p42). Nature of the experiment: Western blot of MAPK phosphorylation in CpG-ODN-stimulated macrophages. The conditions noted are these: macrophages pre-treated at 20 μM for 1 hour before CpG-ODN; FIG. 6A. It counts as cell-based, mouse. The method, then: as §1
The next experiment has as its system AP-1. Kind of experiment: AP-1 reporter luciferase assay in TLR9-transfected HEK293T cells stimulated with CpG-ODN. Type of experiment: cell-based. The conditions noted are these: HEK293T cells transfected with murine TLR9-expressing plasmid; pre-treated 1 hour before CpG DNA (1 μM), 18 hour; FIG. 7. How it is done: It is known that activation of an MAPK signaling pathway activates a transcriptional factor AP-1, thereby increasing a DNA binding activity of AP-1 and expression of an AP-1-dependent gene. […] Firstly, HEK239T cells were plated in a 24-well plate and cultured overnight. Then, HEK293T cells were transfected with pcDNA3 (empty vector) or pcDNA3-mTLR9 that expresses murine TLR9, with an AP-1 reporter gene and pRLnull (Promega, WI, USA) using a Fugene 6 (Roche, UN, USA). Cells were then further incubated for 24 hour, and then pre-treated with the apo-9′-fucoxanthinone compound at each concentration as described in the above Examples for 1 hour before stimulation with CpG DNA (1 μM). After further incubation for 18 hour, the cells were lysed with a passive lysis buffer (Promega), and then analyzed using a dual luciferase reporter assay system (Promega). All of the experiments were repeated three times, and the results thereof were expressed in the fold increase.

This is an account of results in US20150182487A1, “COMPOSITION FOR PREVENTING AND TREATING INFLAMMATORY DISEASES AND IMMUNE DISEASES, CONTAINING APO-9`-FUCOXANTHINONE AS ACTIVE INGREDIENT” (JEJU NATIONAL UNIVERSITY INDUSTRY ACADEMIC COOPERATION …, priority 2012, published 2015).

T1 sequence (Q8R4B8 whole entry): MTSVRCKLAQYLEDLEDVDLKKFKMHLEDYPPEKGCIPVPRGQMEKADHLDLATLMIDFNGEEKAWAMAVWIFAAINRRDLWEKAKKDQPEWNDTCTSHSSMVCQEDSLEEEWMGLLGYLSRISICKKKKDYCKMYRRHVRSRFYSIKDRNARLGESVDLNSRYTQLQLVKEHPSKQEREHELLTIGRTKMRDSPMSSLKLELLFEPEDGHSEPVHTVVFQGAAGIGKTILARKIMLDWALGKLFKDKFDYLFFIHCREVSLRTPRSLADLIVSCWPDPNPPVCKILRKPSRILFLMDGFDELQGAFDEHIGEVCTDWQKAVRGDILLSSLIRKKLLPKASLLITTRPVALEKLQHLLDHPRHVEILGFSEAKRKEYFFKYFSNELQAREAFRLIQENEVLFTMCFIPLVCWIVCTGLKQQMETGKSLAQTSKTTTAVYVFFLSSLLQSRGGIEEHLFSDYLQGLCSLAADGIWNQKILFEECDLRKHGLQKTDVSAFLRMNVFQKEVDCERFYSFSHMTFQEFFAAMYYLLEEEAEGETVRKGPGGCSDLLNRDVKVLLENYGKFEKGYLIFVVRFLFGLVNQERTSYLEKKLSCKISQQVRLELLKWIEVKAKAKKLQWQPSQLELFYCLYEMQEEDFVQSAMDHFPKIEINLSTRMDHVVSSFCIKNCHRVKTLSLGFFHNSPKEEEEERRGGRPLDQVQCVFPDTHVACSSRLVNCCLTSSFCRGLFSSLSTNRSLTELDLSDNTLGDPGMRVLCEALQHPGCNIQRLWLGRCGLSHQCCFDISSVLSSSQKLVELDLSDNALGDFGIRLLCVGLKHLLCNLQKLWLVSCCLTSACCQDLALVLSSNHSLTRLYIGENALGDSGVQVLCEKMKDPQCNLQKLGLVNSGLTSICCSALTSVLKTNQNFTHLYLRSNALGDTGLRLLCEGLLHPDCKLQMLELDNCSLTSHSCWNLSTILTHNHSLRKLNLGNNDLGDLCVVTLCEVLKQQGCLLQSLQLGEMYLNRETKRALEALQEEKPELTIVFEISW

For the compound `CC(=O)C=C=C1C(C)(C)C[C@H](OC(C)=O)C[C@@]1(C)O` [apo-9′-fucoxanthinone], the “production of IL-1β” value on NLRP3 inflammasome was “effectively inhibited in a dose-dependent manner”. Moreover, the “degradation and phosphorylation of IκBα” value in the experiment on IκBα is “did not greatly affect”. In addition, the “pro-inflammatory cytokine production (IL-12 p40, IL-6, TNF-α)” value in experiment [1] and in experiment [2] was “effectively inhibiting” throughout. Besides, the “pyroptotic cell death (cell viability, MTT)” value in experiment [3] was “inhibiting pyroptotic cell death”. Moreover, in the experiment with ERK1/2 (ERK p44/p42), the “phosphorylation of ERK1/2 (ERK p44/p42)” value is given as “strongly inhibited”. Moreover, in the experiment on AP-1, the AP-1-dependent luciferase activity entry is listed as “decreased in a dose-dependent manner”.
